In PubChem BioAssay AID248 (DTP/NCI, 2004):
Several values for one entry are separate records, joined by “and”; a condition that tells them apart may be missing. Identical values can stand only once. Toxic doses and inconclusive results are not listed. Cut-off read from the data, not from the text of the source: active = T/C of 150% or more; inactive = T/C below 125%.

Test system: L1210 leukemia ip in BDF1 mice, survival T/C
Test: NCI In Vivo Anticancer Drug Screen. Data for tumor model L1210 Leukemia (intraperitoneal) in B6D2F1 (BDF1) mice
Conditions: endpoint: mean survival time, higher = longer survival
How it was run: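 Read-out is survival time, reported as the treated-group measurement over the vehicle-control measurement.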

[1] = dose: 100.0 mg/kg/injection, schedule: Q04DX003 (ip), vehicle: Klucel (hydroxypropylcellulose) (HPC)
[2] = dose: 200.0 mg/kg/injection, schedule: Q04DX003 (ip), vehicle: Klucel (hydroxypropylcellulose) (HPC)
[3] = dose: 400.0 mg/kg/injection, schedule: Q04DX003 (ip), vehicle: Klucel (hydroxypropylcellulose) (HPC)
[4] = dose: 100.0 mg/kg/injection, schedule: Q01DX001 (ip), vehicle: saline
[5] = dose: 100.0 mg/kg/injection, schedule: Q01DX009 (ip), vehicle: saline
[6] = dose: 200.0 mg/kg/injection, schedule: Q01DX009 (ip), vehicle: saline
[7] = dose: 400.0 mg/kg/injection, schedule: Q01DX009 (ip), vehicle: saline
[8] = dose: 100.0 mg/kg/injection, schedule: Q01DX009 (ip), vehicle: Klucel (hydroxypropylcellulose) (HPC)
[9] = dose: 200.0 mg/kg/injection, schedule: Q01DX009 (ip), vehicle: Klucel (hydroxypropylcellulose) (HPC)
[10] = dose: 400.0 mg/kg/injection, schedule: Q01DX009 (ip), vehicle: Klucel (hydroxypropylcellulose) (HPC)
[11] = dose: 100.0 mg/kg/injection, schedule: Q04DX003 (ip), vehicle: saline with Tween-80
[12] = dose: 200.0 mg/kg/injection, schedule: Q04DX003 (ip), vehicle: saline with Tween-80
[13] = dose: 100.0 mg/kg/injection, schedule: Q04DX002 (ip), vehicle: saline with Tween-80
[14] = dose: 200.0 mg/kg/injection, schedule: Q04DX002 (ip), vehicle: saline with Tween-80
[15] = dose: 400.0 mg/kg/injection, schedule: Q04DX002 (ip), vehicle: saline with Tween-80
[16] = dose: 50.0 mg/kg/injection, schedule: Q01DX009 (ip), vehicle: Klucel (hydroxypropylcellulose) (HPC)
[17] = dose: 400.0 mg/kg/injection, schedule: Q04DX003 (ip), vehicle: saline with Tween-80

Measured: T/C

C=C(Cl)CC1(C(=O)OCC)CCN(S(=O)(=O)c2ccc(C)cc2)c2ccccc2C1=O (stereo not given)
inactive: [1] 94 % of control | [2] 98 % of control | [3] 88 % of control

CC1(C)CCC2CC(=O)OC2(C)C1 (stereo not given)
inactive: [4] 109 % of control | [5] 100 % of control | dose: 200.0 mg/kg/injection, schedule: Q01DX001 (ip), vehicle: saline 95 % of control | [6] 94 % of control | dose: 400.0 mg/kg/injection, schedule: Q01DX001 (ip), vehicle: saline 92 % of control | [7] 98 % of control

NNC(=O)c1cccnc1
inactive: dose: 12.5 mg/kg/injection, schedule: Q01DX009 (ip), vehicle: saline 94 % of control | dose: 25.0 mg/kg/injection, schedule: Q01DX001 (ip), vehicle: saline 100 % of control | dose: 25.0 mg/kg/injection, schedule: Q01DX009 (ip), vehicle: saline 104 % of control | dose: 50.0 mg/kg/injection, schedule: Q01DX001 (ip), vehicle: saline 105 % of control | dose: 50.0 mg/kg/injection, schedule: Q01DX009 (ip), vehicle: saline 98 % of control | [4] 102 % of control and 104 % of control | [5] 105 % of control

O=C(c1ccccc1)C(Nc1nc2nc(-c3ccccc3)c(-c3ccccc3)n2[nH]1)c1ccccc1 (stereo not given)
inactive: dose: 100.0 mg/kg/injection, schedule: Q01DX005 (ip), vehicle: Klucel (hydroxypropylcellulose) (HPC) 98 % of control | [8] 93 % of control | dose: 100.0 mg/kg/injection, schedule: Q04DX002 (ip), vehicle: Klucel (hydroxypropylcellulose) (HPC) 101 % of control | dose: 200.0 mg/kg/injection, schedule: Q01DX005 (ip), vehicle: Klucel (hydroxypropylcellulose) (HPC) 98 % of control | [9] 93 % of control | dose: 200.0 mg/kg/injection, schedule: Q04DX002 (ip), vehicle: Klucel (hydroxypropylcellulose) (HPC) 93 % of control | dose: 400.0 mg/kg/injection, schedule: Q01DX005 (ip), vehicle: Klucel (hydroxypropylcellulose) (HPC) 98 % of control | [10] 93 % of control | dose: 400.0 mg/kg/injection, schedule: Q04DX002 (ip), vehicle: Klucel (hydroxypropylcellulose) (HPC) 96 % of control

COc1ccc(OC)c(NC(=O)CS)c1
inactive: [11] 97 % of control | [12] 91 % of control

CCCCCCCCCCN(CCCCCCCCCC)S(=O)(=O)c1ccc(OC)c([N+](=O)[O-])c1
inactive: dose: 75.0 mg/kg/injection, schedule: Q01DX001 (ip), vehicle: other 100 % of control | dose: 150.0 mg/kg/injection, schedule: Q01DX001 (ip), vehicle: other 93 % of control | dose: 300.0 mg/kg/injection, schedule: Q01DX001 (ip), vehicle: other 90 % of control

CCOC(C)=NC1=C(C#N)CP(c2ccccc2)CC1 (stereo not given)
inactive: [13] 103 % of control | [14] 95 % of control | [15] 92 % of control

CCCCCCCCCCCCCCCCS(=O)CCCCCCCCCCCCCCCC
inactive: [16] 88 % of control | [8] 92 % of control

N#CCCC(CC#N)S(=O)(=O)O (stereo not given)
inactive: [5] 105 % of control | dose: 100.0 mg/kg/injection, schedule: Q04DX003 (ip), vehicle: saline 100 % of control | [6] 103 % of control | dose: 200.0 mg/kg/injection, schedule: Q04DX003 (ip), vehicle: saline 108 % of control | [7] 102 % of control | dose: 400.0 mg/kg/injection, schedule: Q04DX003 (ip), vehicle: saline 106 % of control

C=CCCC1CC(C(C)C)CC2(C1)OCCO2 (stereo not given)
inactive: dose: 50.0 mg/kg/injection, schedule: Q01DX009 (ip), vehicle: saline with Tween-80 96 % of control | dose: 100.0 mg/kg/injection, schedule: Q01DX009 (ip), vehicle: saline with Tween-80 96 % of control

COC(=O)c1ccccc1OC(=S)N(C)C
inactive: [11] 113 % of control | [12] 103 % of control | [17] 114 % of control

O=[N+]([O-])c1ccc(Cc2ccccc2)cc1 (tested in a mixture with another compound)
inactive: [13] 101 % of control | [14] 101 % of control | [15] 97 % of control

CC12CCc3oc(-c4ccccc4)cc3C1=CCCC2=O (stereo not given)
inactive: dose: 100.0 mg/kg/injection, schedule: Q01DX001 (ip), vehicle: saline with Tween-80 102 % of control | dose: 200.0 mg/kg/injection, schedule: Q01DX001 (ip), vehicle: saline with Tween-80 94 % of control | dose: 400.0 mg/kg/injection, schedule: Q01DX001 (ip), vehicle: saline with Tween-80 96 % of control

CC(C)(C)C1SCC(=NNc2ccc([N+](=O)[O-])cc2[N+](=O)[O-])CS1 (stereo not given)
inactive: dose: 12.5 mg/kg/injection, schedule: Q04DX002 (ip), vehicle: gum acacia 95 % of control | dose: 25.0 mg/kg/injection, schedule: Q04DX002 (ip), vehicle: gum acacia 98 % of control | dose: 50.0 mg/kg/injection, schedule: Q04DX002 (ip), vehicle: gum acacia 95 % of control

O=[N+]([O-])c1cc([N+](=O)[O-])c(/C=C/c2cccc(OCc3ccccc3)c2)cc1/C=C/c1cccc(OCc2ccccc2)c1
inactive: dose: 75.0 mg/kg/injection, schedule: Q01DX001 (ip), vehicle: saline 91 % of control | dose: 150.0 mg/kg/injection, schedule: Q01DX001 (ip), vehicle: saline 89 % of control | dose: 300.0 mg/kg/injection, schedule: Q01DX001 (ip), vehicle: saline 91 % of control

C=C(Cl)CSCCCS
inactive: dose: 100.0 mg/kg/injection, schedule: Q01DX009 (ip), vehicle: acetone 108 % of control | dose: 130.0 mg/kg/injection, schedule: Q01DX009 (ip), vehicle: saline 116 % of control | dose: 200.0 mg/kg/injection, schedule: Q01DX009 (ip), vehicle: acetone 123 % of control | [6] 120 % of control | dose: 300.0 mg/kg/injection, schedule: Q01DX009 (ip), vehicle: saline 120 % of control

COC(=O)c1cccn1C(=O)c1ccccc1[N+](=O)[O-]
inactive: dose: 50.0 mg/kg/injection, schedule: Q04DX002 (ip), vehicle: other 105 % of control | dose: 100.0 mg/kg/injection, schedule: Q04DX002 (ip), vehicle: other 97 % of control | dose: 200.0 mg/kg/injection, schedule: Q04DX002 (ip), vehicle: other 94 % of control

CCOC(=O)CNC(=O)Oc1c(Cl)cccc1Cl
inactive: dose: 25.0 mg/kg/injection, schedule: Q01DX009 (ip), vehicle: Klucel (hydroxypropylcellulose) (HPC) 100 % of control | [16] 88 % of control | [8] 89 % of control

COS(C)(=O)=O
inactive: dose: 12.5 mg/kg/injection, schedule: Q01DX010 (ip), vehicle: saline 101 % of control and 91 % of control | dose: 25.0 mg/kg/injection, schedule: Q01DX010 (ip), vehicle: saline 102 % of control and 106 % of control | dose: 25.0 mg/kg/injection, schedule: Q01DX Z (ip), vehicle: carboxymethylcellulose (CMC) 97 % of control | dose: 50.0 mg/kg/injection, schedule: Q01DX010 (ip), vehicle: saline 96 % of control and 106 % of control | dose: 50.0 mg/kg/injection, schedule: Q01DX Z (ip), vehicle: carboxymethylcellulose (CMC) 106 % of control | dose: 100.0 mg/kg/injection, schedule: Q01DX010 (ip), vehicle: saline 95 % of control and 102 % of control | dose: 100.0 mg/kg/injection, schedule: Q01DX Z (ip), vehicle: carboxymethylcellulose (CMC) 95 % of control

CCN(CC)CCC(CNc1c(C)cnc2cc(Cl)ccc12)c1ccc(Cl)cc1 (stereo not given)
inactive: [11] 100 % of control | [12] 100 % of control | [17] 94 % of control

CC(c1ccccc1)C(C#N)c1ccccc1 (stereo not given)
inactive: [8] 97 % of control | [1] 97 % of control | [9] 98 % of control | [2] 92 % of control | [10] 88 % of control | [3] 89 % of control
